# Test system: catalepsy induced by the DA receptor antagonist haloperidol
# Assay: haloperidol-induced catalepsy in mice
# Type: in vivo
# Description: Furthermore, haloperidol-induced catalepsy, a model of parkinsonian motor disability, is reduced in M4 knockout mice as compared to wild-type controls. […] The reversal by scopolamine was uncommonly robust and more pronounced than we observe with agents targeting a number of other targets being evaluated for potential antiparkinsonian effects, including metabotropic glutamate (mGlu) receptors mGlu4 or mGlu5, A2A adenosine receptors, and NMDA receptors. […] Taken together with the extensive studies of M4 modulation of basal ganglia and motor function, these studies provide compelling evidence that M4 is the dominant mAChR subtype involved in the antiparkinsonian effects of non-selective mAChR antagonists and provide support for discovery and development of selective M4 antagonists for treatment of neurodegenerative disease such as PD, dystonia, tardive dyskinesia and other movement disorders.
smiles,measurement,setting,value
CN1[C@@H]2C[C@@H](OC(=O)[C@H](CO)c3ccccc3)C[C@H]1[C@@H]1O[C@@H]12 [scopolamine],reduction of haloperidol-induced catalepsy,M4 KO mice,ineffective
same,reversal of haloperidol-induced catalepsy,WT mice,completely reversed

# Source: patent publication US11414406B2, “Antagonists of the muscarinic acetylcholine receptor M4” (Vanderbilt University, priority 2018, dated 2022)
